{"source": "paper PMC10783051", "about": "(Microbiology Spectrum, 2023)", "tested_on": "Streptomyces venezuelae ATCC 10712", "test": "In planta co-inoculation on tomato roots, UPLC-MS of rhizosphere extracts", "settings": "tomato roots on Hoagland agar, 7 days at 22°C, UPLC-MS of agar near the roots, four biological replicates", "procedure": "For the in planta studies, tomato seeds (Solanum lycopersicum var. Moneymaker) were sterilized following the protocol described by ([26]). Briefly, tomato seeds were primarily sterilized in 70% ethanol (vol/vol) by gently shaking for 2 min. Further, the ethanol was removed and the seeds were added to 50 mL of the sterilization solution [4.5 mL of bleach containing 9.5% (vol/vol) of active chlorine, 0.01 g of Tween 80, and 45.5 mL of sterile water] and gently shaken for 10 min. Seeds were thereafter washed 10 times with water to eliminate sterilization solution residues. […]\nAll UPLC-MS analyses were performed using an Agilent 1290 Infinity II coupled with a diode array detector and a mass detector (Jet Stream ESI-Q-TOF 6530) in positive mode with the parameters set up as follows: capillary voltage of 3.5 kV, nebulizer pressure of 35 lb/in^2, drying gas of 8 L/min, drying gas temperature of 300°C, flow rate of sheath gas of 11 L/min, sheath gas temperature of 350°C, fragmentor voltage of 175 V, skimmer voltage of 65 V, and octopole radiofrequency of 750 V. Accurate mass spectra were recorded in the m/z range of 300–1,700. […]", "data": [{"substance": "iturin", "values": [{"measurement": "linear forms in rhizosphere extracts upon co-inoculation of Bv with Sv", "result": "high proportion of linear"}]}]}
